# From ChEMBL document CHEMBL4418299, “Compounds useful as csf1 modulators” (2016)
# Biological target: Macrophage colony-stimulating factor 1 receptor (Homo sapiens, UniProt P07333)
# Assay: Displacement of kinase tracer 236 from recombinant human His-tagged CSF1R cytoplasmic domain (538 to 910 residues) expressed in baculovirus-infected insect cells measured after 5 hrs by TR-FRET based LanthaScreen assay
# Sequence of Macrophage colony-stimulating factor 1 receptor (P07333 whole entry, the tested form may be a part): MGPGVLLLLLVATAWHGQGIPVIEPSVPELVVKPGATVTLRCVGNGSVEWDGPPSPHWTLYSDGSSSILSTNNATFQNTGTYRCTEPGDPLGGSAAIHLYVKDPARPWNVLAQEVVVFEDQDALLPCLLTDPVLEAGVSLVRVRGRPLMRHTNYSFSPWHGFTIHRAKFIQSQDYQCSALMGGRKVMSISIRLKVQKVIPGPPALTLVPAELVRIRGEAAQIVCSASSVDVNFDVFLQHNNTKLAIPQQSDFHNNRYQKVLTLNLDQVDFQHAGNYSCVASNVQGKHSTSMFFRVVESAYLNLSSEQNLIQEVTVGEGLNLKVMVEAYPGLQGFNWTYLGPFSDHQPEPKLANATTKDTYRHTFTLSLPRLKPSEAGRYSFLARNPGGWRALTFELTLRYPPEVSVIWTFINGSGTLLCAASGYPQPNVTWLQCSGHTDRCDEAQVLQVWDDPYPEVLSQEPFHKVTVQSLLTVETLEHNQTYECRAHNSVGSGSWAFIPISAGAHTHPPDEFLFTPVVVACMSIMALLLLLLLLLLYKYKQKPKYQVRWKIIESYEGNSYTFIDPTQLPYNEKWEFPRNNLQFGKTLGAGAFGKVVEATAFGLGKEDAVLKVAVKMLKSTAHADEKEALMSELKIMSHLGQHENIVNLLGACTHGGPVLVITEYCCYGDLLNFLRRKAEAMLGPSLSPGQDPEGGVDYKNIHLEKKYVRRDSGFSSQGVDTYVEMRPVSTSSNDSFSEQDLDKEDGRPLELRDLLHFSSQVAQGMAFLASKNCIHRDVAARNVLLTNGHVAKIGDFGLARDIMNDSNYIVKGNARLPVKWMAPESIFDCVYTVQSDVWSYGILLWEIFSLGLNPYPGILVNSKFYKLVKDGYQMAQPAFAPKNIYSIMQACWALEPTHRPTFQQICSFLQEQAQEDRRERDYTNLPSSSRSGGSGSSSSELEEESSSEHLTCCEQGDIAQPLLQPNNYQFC
row,Structure (SMILES),IC50 [nM]
1,COc1cc(-n2c3c(c4ncnc(N)c42)CCC3)ccc1CC(=O)Nc1ccc(C(F)(F)F)nc1,< 10
2,COc1cc(-n2c3c(c4ncnc(N)c42)COC3)ccc1NC(=O)Cc1cnc2c(ccn2C)c1,32
3,COc1cc(-n2c3c(c4ncnc(N)c42)COC3)ccc1NC(=O)Cc1nccc(C(F)(F)F)n1,> 200
4,Cn1ccc(CC(=O)Nc2ccc(-n3c4c(c5ncnc(N)c53)CCC4)cc2)n1,> 200
5,COc1cc(-n2c3c(c4ncnc(N)c42)CCC3)ccc1CC(=O)Nc1cnn(C)c1,> 200
6,Nc1ncnc2c3c(n(-c4ccc(NC(=O)CN5CCCC5)cc4)c12)CCC3,> 200
7,Nc1ncnc2c3c(n(-c4ccc(NC(=O)Cc5ccccc5)cc4)c12)COC3,< 10
8,CN1CCN(CC(=O)Nc2ccc(-n3c4c(c5ncnc(N)c53)CCC4)cc2)CC1,> 200
9,COc1cc(-n2c3c(c4ncnc(N)c42)CCC3)ccc1CC(=O)Nc1cc(C(F)(F)F)cnn1,< 10
10,COc1cc(-n2c3c(c4ncnc(N)c42)CCC3)ccc1NC(=O)Cc1cc(C(F)(F)F)nn1C,10 to 200
11,Cn1ccc2cc(CC(=O)Nc3ccc(-n4c5c(c6ncnc(N)c64)CCC5)cc3)cnc21,< 10
12,COc1ccc(NC(=O)Cc2ccc(-n3c4c(c5ncnc(N)c53)CCC4)cc2)nn1,> 200
13,Cc1cnc(CC(=O)Nc2ccc(-n3c4c(c5ncnc(N)c53)CCC4)cc2)c(F)c1,10 to 200
14,COc1cc(-n2c3c(c4ncnc(N)c42)CCC3)ccc1NC(=O)Cc1cc(C(F)(F)F)no1,< 10
15,COc1cc(-n2c3c(c4ncnc(N)c42)CCC3)ccc1CC(=O)Nc1cnc(OC)c(F)c1,< 10
16,CNC(=O)c1ccc(CC(=O)Nc2ccc(-n3c4c(c5ncnc(N)c53)CCC4)cc2OC)cc1,> 200
17,Nc1ncnc2c3c(n(-c4ccc(NC(=O)Cc5cnn(-c6ccccc6)c5)cc4)c12)CCC3,10 to 200

row,Structure (SMILES),IC50 [nM]
1,COc1cc(-n2c3c(c4ncnc(N)c42)CCC3)ccc1NC(=O)Cc1ccnc(C(F)(F)F)c1,< 10
2,Nc1ncnc2c3c(n(-c4ccc(NC(=O)Cc5cc(C(F)F)on5)cc4)c12)CCC3,10 to 200
3,COc1cc(-n2c3c(c4ncnc(N)c42)COC3)ccc1NC(=O)Cc1ccc(C(F)(F)F)nn1,10 to 200
4,Nc1ncnc2c3c(n(-c4ccc(NC(=O)[C@@H](N)c5ccccc5)cc4)c12)CCC3,> 200
5,COc1cc(-n2c3c(c4ncnc(N)c42)CCC3)ccc1CC(=O)Nc1ccn(C)n1,> 200
6,Nc1ncnc2c3c(n(-c4ccc(NC(=O)Cc5ccncc5)cc4)c12)CCC3,> 200
7,COc1cc(-n2c3c(c4ncnc(N)c42)CCC3)ccc1NC(=O)Cc1ccc2c(c1)CN(C)C2=O,> 200
8,Nc1ncnc2c3c(n(-c4ccc(CC(=O)Nc5cccnc5)cc4)c12)CCC3,> 200
9,COc1cc(-n2c3c(c4ncnc(N)c42)COC3)ccc1NC(=O)Cc1cc(C(F)(F)F)on1,10 to 200
10,COc1cc(-n2c3c(c4ncnc(N)c42)CCC3)ccc1NC(=O)Cn1cc(C(F)(F)F)nc1C,10 to 200
11,COc1ccc(CC(=O)Nc2ccc(-n3c4c(c5ncnc(N)c53)COC4)cc2F)c(F)c1,> 200
12,COc1cc(-n2c3c(c4ncnc(N)c42)CCC3)ccc1NC(=O)Cc1cc(C(F)(F)F)cnn1,10 to 200
13,Nc1ncnc2c3c(n(-c4ccc(NC(=O)Cn5cc(C(F)(F)F)cn5)cc4)c12)COC3,10 to 200
14,Nc1ncnc2c3c(n(-c4ccc(NC(=O)Cc5cnn(C(F)F)c5)cc4)c12)CCC3,10 to 200
15,Nc1ncnc2c3c(n(-c4ccc(NC(=O)CC5CCN(C(=O)OCc6ccccc6)CC5)cc4)c12)CCC3,10 to 200
16,COc1cc(-n2c3c(c4ncnc(N)c42)CCC3)ccc1CC(=O)Nc1ccc2nonc2c1,< 10
17,Nc1ncnc2c3c(n(-c4ccc(NC(=O)Cc5ccnc(C(F)(F)F)c5)cc4)c12)COC3,10 to 200

# Results, then the compound that gave them:
row,IC50 [nM],Structure (SMILES)
1,> 200,Nc1ncnc2c3c(n(-c4ccc(NC(=O)CN5CCOCC5)cc4)c12)CCC3
2,9,COc1cc(-n2c3c(c4ncnc(N)c42)CCC3)ccc1NC(=O)Cc1ccc(C(F)(F)F)nn1
3,10 to 200,COc1cc(-n2c3c(c4ncnc(N)c42)CCC3)ccc1CC(=O)Nc1cnn(C(F)F)c1
4,10 to 200,Cn1cc(CCC(=O)Nc2ccc(-n3c4c(c5ncnc(N)c53)CCC4)cc2)c2ccccc21
5,10 to 200,COc1cc(-n2c3c(c4ncnc(N)c42)COC3)ccc1NC(=O)Cn1cc(C(C)(C)C)cn1
6,< 10,COc1cc(-n2c3c(c4ncnc(N)c42)CCC3)ccc1NC(=O)Cn1cc(C(F)(F)F)cn1
7,> 200,Nc1ncnc2c3c(n(-c4ccc(NC(=O)Cc5ccn(C(F)F)n5)cc4)c12)COC3
8,10 to 200,Nc1ncnc2c3c(n(-c4ccc(NC(=O)Cc5ccn(C(F)F)n5)cc4)c12)CCC3
9,10 to 200,COc1cc(-n2c3c(c4ncnc(N)c42)CCC3)ccc1NC(=O)Cc1ccc(C(=O)N(C)C)cc1
10,< 10,COc1ccc(CC(=O)Nc2ccc(-n3c4c(c5ncnc(N)c53)CCC4)cc2OC)cc1C
11,10 to 200,Nc1ncnc2c3c(n(-c4ccc(NC(=O)CCc5ccccc5)cc4)c12)CCC3
12,< 10,Cn1ncc(CC(=O)Nc2ccc(-n3c4c(c5ncnc(N)c53)CCC4)cc2)c1C(F)(F)F
13,10 to 200,Nc1ncnc2c3c(n(-c4ccc(NC(=O)Cn5ccc(C(F)(F)F)n5)cc4)c12)COC3
14,< 10,Nc1ncnc2c3c(n(-c4ccc(NC(=O)Cc5cc(C(F)(F)F)no5)cc4)c12)CCC3
15,29,Nc1ncnc2c3c(n(-c4ccc(NC(=O)Cc5ccc(O)cc5)cc4)c12)CCC3
16,10 to 200,Nc1ncnc2c3c(n(-c4ccc(CC(=O)NCc5ccccc5)cc4)c12)CCC3
17,> 200,COc1cc(-n2c3c(c4ncnc(N)c42)CCC3)ccc1NC(=O)Cc1c(C)noc1C

row,IC50 [nM],Structure (SMILES)
1,< 10,COc1cc(-n2c3c(c4ncnc(N)c42)CCC3)ccc1NC(=O)Cc1ccc(C2(O)COC2)cc1
2,10 to 200,COc1cc(-n2c3c(c4ncnc(N)c42)COC3)ccc1NC(=O)Cc1cc(C)ccc1F
3,10 to 200,COc1cc(-n2c3c(c4ncnc(N)c42)CCC3)ccc1NC(=O)Cn1cnc(C(F)(F)F)c1
4,> 200,Nc1ncnc2c3c(n(-c4ccc(NC(=O)Cc5ccccc5)c(F)c4)c12)CCC3
5,< 10,COc1ncc(NC(=O)Cc2ccc(-n3c4c(c5ncnc(N)c53)CCC4)cc2)cc1F
6,10 to 200,COc1cc(-n2c3c(c4ncnc(N)c42)CCC3)ccc1CC(=O)Nc1ccc(C2(O)COC2)cc1
7,> 200,CC(=O)N1CCC(CC(=O)Nc2ccc(-n3c4c(c5ncnc(N)c53)CCC4)cc2)CC1
8,10 to 200,Nc1ncnc2c3c(n(-c4ccc(NC(=O)CCCN5CCOCC5)cc4)c12)CCC3
9,< 10,COc1ccc(CC(=O)Nc2ccc(-n3c4c(c5ncnc(N)c53)CCC4)cc2OC)cc1F
10,10 to 200,COc1ccc(CC(=O)Nc2ccc(-n3c4c(c5ncnc(N)c53)CCC4)cc2OC)nc1
11,< 10,COc1cc(-n2c3c(c4ncnc(N)c42)CCC3)ccc1CC(=O)Nc1ccc(C(C)(C)O)nc1
12,10 to 200,COc1cccc(CC(=O)Nc2ccc(-n3c4c(c5ncnc(N)c53)CCC4)cc2)n1
13,10 to 200,COc1cc(CC(=O)Nc2ccc(-n3c4c(c5ncnc(N)c53)COC4)cc2OC)cc(OC)c1
14,10 to 200,COc1cc(-n2c3c(c4ncnc(N)c42)COC3)ccc1NC(=O)Cn1ncc2ccccc21
15,10 to 200,Nc1ncnc2c3c(n(-c4ccc(NC(=O)Cc5c(F)cc(Cl)cc5F)cc4)c12)CCC3
16,10 to 200,Nc1ncnc2c3c(n(-c4ccc(NC(=O)Cc5coc(-c6ccccc6)n5)cc4)c12)CCC3
